Reference: patent publication US4894374A, “Substituted 1,2-dihydro-4h-3,1-benzoxazin-4-one derivatives inhibitors of interleukin 1” (American Home Products Corporation, priority 1988, dated 1990)

Tested on: IL 1-induced release of neutral protease from rabbit articular chondrocytes
Assay: inhibition of IL 1-induced release of neutral protease from rabbit articular chondrocytes
Format: cell-based, rabbit (New Zealand White)
Settings: Oryctolagus cuniculus, Chondrocyte, human IL 1 stimulation, 24 h, compound added 10 min before IL 1, ± S.D., read-out: % Inhibition (of protease secretion)
Method: The ability of the compounds of the inventions to inhibit interleukin 1 is measured by the ability of the test compounds to inhibit the IL 1-induced release of neutral protease from rabbit articular chondrocytes.
Male New Zealand White rabbits are anesthetized with 50 mg/kg of ketamine (i.m.) and killed by an intracardiac injection of 3 mls. of Nembutal. The knee joints of both legs are resected and the articular surfaces are exposed. Cartilage slices are obtained using a scalpel and are placed in a tissue culture dish (100 mm diameter) containing 10 mls of Hank's balanced salt solution (HBSS). The chondrocytes within the cartilage slices are then liberated by a series of enzyme digestions. The slices are incubated for 10 min. at 37° C. in 0.05% hyaluronidase (Sigma H-3884), rinsed with HBSS and incubated with 0.2% trypsin (Sigma T-2395) for 10 min. at 37° C. The slices are rinsed again and incubated for 10 mins. at 37° C. with 1.2% collagenase (Sigma C-5138). The slices are then rinsed again with HBSS and resuspended in 10 ml of Ham's F-12 medium containing 10% fetal bovine calf serum (FCS) and 0.2 % collagenase and incubated overnight at 37° C. in a 5% CO2 incubator. The next day, the medium containing the digested cartilage fragments and liberated chondrocytes is transferred to a 15 ml centrifuge tube and the cells are collected by centrifugation and washed twice and resuspended in Ham's F-12 medium. The cells are then plated into 24-well tissue culture plates (2×10^5 cells/well) and incubated at 37° C. until confluent (usually 4-6 days).
The confluent chondrocytes are rinsed twice with serum-free Ham's F-12 medium and 1 ml is added to each well. Fifty μl of purified human IL 1 (100 Units/ml; Genzyme Corporation, Boston, MA) is then added to stimulate these cells to secrete neutral protease. To measure drug effects, the cells are treated with test compound 10 min. prior to addition of IL 1. The standard screening dose is 10 μM. Twenty-four hours after IL 1 stimulation, supernatant fluids are collected and assayed for neutral protease activity.
The neutral protease activity of chondrocyte supernatant fluids is determined by their ability to degrade an insoluble protease substrate, azocoll (Sigma). Supernatants are treated for 10 min. at room temperature with 350 μM p-aminophenylmercuric acetate to activate the latent enzyme. Three hundred μl of supernatant is then mixed with 500 μl of a 20 mg/ml suspension of azocoll and incubated at 37° C. for 18-24 hrs. with gentle rocking. The mixtures are centrifuged and the amount of substrate hydrolyzed is determined by measuring the absorbance of the supernatant at 520 nm.
Drug effects are calculated as the % change in enzyme activity (absorbance)by supernatants from drug-treated chondrocytes relative to enzyme activity of supernatants from vehicle-treated chondrocytes as follows: % Inhibition of Protease Secretion= [formula]

Work on `N#Cc1ccc(N2CCC3(CC2)Nc2cc(Cl)ccc2C(=O)O3)cc1` [Example 1, 4-[7-Chloro-1,3-dihydro-4-oxospiro[2H-3,1-benzoxazine-2,4'-piperidin]-1-yl]benzonitrile] yielded an inhibition at 1 µM of 56 ± 22%, an inhibition at 5 µM of 55 ± 19% and an inhibition at 10 µM of 47 ± 34%.

`CS(=O)(=O)c1ccc(N2CCC3(CC2)Nc2cc(Cl)ccc2C(=O)O3)cc1` [Example 2, 7-Chloro-1'-[4-(methylsulfonyl)phenyl]spiro[2H-3,1-benzoxazine-2,4'-piperidin]-4(1H)-one] gave an inhibition at 1 µM of 30 ± 31%, an inhibition at 5 µM of 48 ± 7% and an inhibition at 10 µM of 51 ± 32%.
